Read-outs that look alike come from different tables or passages of the source.
Assays:
MST1 [1] = target: T1, MST1 (Homo sapiens (Human), UniProt Q13043); assay: In vitro enzyme activity test (ADP-GLO); format: biochemical
Description: The IC50 values of the compounds against MST1 were determined. The protein kinase MST1 and the substrate were obtained from commercial sources.
5.4 μL of protein kinase MST1 diluted to a certain concentration (final concentration was 2.5 ng/μL) and 1 μL of serially diluted drug compounds and control compound XMU-MP-1 were taken to react at room temperature for 10 minutes (final drug concentrations were 10 μM, 1 μM, 0.3 μM, 0.1 μM, 0.03 μM, 0.01 μM, 0.003 μM, 0.001 μM, respectively).
6 μL of a mixture of ATP (with a final reaction concentration of 50 μM) and substrate was added to the above reaction tube to react at 37° C. for 1 hour. The reaction buffer was 40 mM Tris, 7.5; 20 mM MgCl2; 0.1 mg/ml BSA; 50 μM DTT.
5 μL of the kinase mixture after the reaction was taken to a 384-well plate, and 5 μL of ADP-GLO™ reagent was added thereto. After reaction at room temperature for 40 minutes, the kinase reaction was terminated and the remaining ATP was consumed.
10 μL of a kinase detection reagent was added to convert ADP into ATP, and a coupled luciferase/luciferin reaction was utilized to detect the newly synthesized ATP. Envision was used to read and plot the data, and calculate the IC50 value.

C57BL/6 mice = assay: Liver injury repair experiment (paracetamol/APAP-induced); format: in vivo; conditions: for weight of mice: after APAP 600 mg/kg ip, compound 1 po 1-4 mg/kg, XMU-MP-1 ip 1 mg/kg
Description: C57BL/6 mice, male, 20 g, were maintained in a SPF animal room. Thirty C57BL/6 mice were fasted for 12 hours overnight, and 5 mice of which were intraperitoneally injected with normal saline to act as a normal control group, and the other 25 mice were intraperitoneally injected with paracetamol (APAP) (purchased from Sigma)-600 mg/kg, and randomly divided into 5 groups after 30 minutes, wherein the 5 groups include vehicle (5% DMSO in water), compound 1-1-po, compound 1-2-po, compound 1-4-po, XMU-MP-1-ip groups. Mice in the vehicle group were administered intragastrically with vehicle control; mice in the compound 1-1-po, compound 1-2-po, compound 1-4-po groups were administered intragastrically with compound 1 at 1 mg/kg, 2 mg/kg or 4 mg/kg, respectively; mice in the XMU-MP-1-ip group were intraperitoneally administered with the control compound XMU-MP-1 at 1 mg/kg. After the administration, the body weight of the mice was monitored and the survival status of the mice was observed.

[2] = system: autophosphorylation of MST1; assay: Effect on MST1 signaling pathway of pancreatic β cells; format: cell-based, mouse; conditions: MIN-6 cells, 1 μM, 72 hours, 33.3 mM glucose
Description: (§1) The effects of compound 1 and the control compound XMU-MP-1 on MST1 signaling pathway such as autophosphorylation of MST1, apoptosis signaling pathway such as cleavage of four proteins Caspase9/7/3 and PARP, expression of BIM, BAX, BCL-2, BCL-XL protein, proliferation-related signaling pathway such as autophosphorylation of AKT and ERK, and phosphorylation and protein expression of insulin secretion transcription factor PDX1 were tested in mouse pancreatic β-cells, MIN-6 cells (Hunan Fenghuishengwu technology Co., Ltd.). Compound 1 of different concentrations (0 μM, 0.3 μM, 1 μM, 3 μM in DMSO) and XMU-MP-1 of 1 μM (in DMSO) were used to treat the cell line for 72 hours in a medium with a glucose content of 33.3 mM, respectively. One of the control DMSO group involved 5.5 mM glucose and the other one involved 33.3 mM glucose. The samples were collected.

[3] = system: Caspase9/7/3, PARP, BIM, BCL-XL; assay: Effect on apoptosis signaling pathway of pancreatic β cells; format: cell-based, mouse; conditions: MIN-6 cells, 1 μM, 72 hours, 33.3 mM glucose
Description: as §1

PDX1 = assay: Effect on insulin secretion transcription factor PDX1 in pancreatic β cells; format: cell-based, mouse; conditions: MIN-6 cells, 72 hours, 33.3 mM glucose
Description: as §1

[4] = system: autophosphorylation of AKT and ERK; assay: Effect on proliferation-related signaling pathway of pancreatic β cells; format: cell-based, mouse; conditions: MIN-6 cells, 72 hours, 33.3 mM glucose
Description: as §1

MIN-6 cells = assay: Proliferation of MIN-6 cells (cell counter); conditions: 72 hours
Description: as §1
JIMBIO cell counter (EXCEL HERO TECHNOLOGY LIMITED) was used to detect the effect on the proliferation of MIN-6 cells after 72 hours of the administration.

MST1 [5] = target: T1, MST1; conditions: literature; read-out: IC50 against MST1; cited from earlier work
MAP3K2 = MAP3K2 (Homo sapiens (Human), UniProt Q9Y2U5); conditions: literature; cited from earlier work
Chain of MAP3K2 (Q9Y2U5 whole entry, species assumed): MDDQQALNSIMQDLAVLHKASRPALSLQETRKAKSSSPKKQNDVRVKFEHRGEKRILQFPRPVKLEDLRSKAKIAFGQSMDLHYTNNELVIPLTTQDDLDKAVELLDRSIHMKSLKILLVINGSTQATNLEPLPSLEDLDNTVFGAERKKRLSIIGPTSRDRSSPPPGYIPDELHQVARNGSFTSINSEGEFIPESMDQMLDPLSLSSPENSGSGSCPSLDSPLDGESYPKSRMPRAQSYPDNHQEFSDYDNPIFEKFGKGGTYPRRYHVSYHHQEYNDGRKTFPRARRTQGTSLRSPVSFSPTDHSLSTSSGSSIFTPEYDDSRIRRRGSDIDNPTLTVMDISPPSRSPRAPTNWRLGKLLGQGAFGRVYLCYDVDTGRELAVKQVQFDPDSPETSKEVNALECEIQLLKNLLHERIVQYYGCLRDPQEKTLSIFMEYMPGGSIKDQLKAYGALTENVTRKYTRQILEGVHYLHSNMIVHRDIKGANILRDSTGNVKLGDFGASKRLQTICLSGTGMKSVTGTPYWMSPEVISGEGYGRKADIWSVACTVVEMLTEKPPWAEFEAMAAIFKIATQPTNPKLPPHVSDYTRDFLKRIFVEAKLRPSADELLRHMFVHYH

TAOK = conditions: literature; cited from earlier work
PIK3CG = PIK3CG (Homo sapiens (Human), UniProt P48736); conditions: literature; cited from earlier work
Chain of PIK3CG (P48736 whole entry, species assumed): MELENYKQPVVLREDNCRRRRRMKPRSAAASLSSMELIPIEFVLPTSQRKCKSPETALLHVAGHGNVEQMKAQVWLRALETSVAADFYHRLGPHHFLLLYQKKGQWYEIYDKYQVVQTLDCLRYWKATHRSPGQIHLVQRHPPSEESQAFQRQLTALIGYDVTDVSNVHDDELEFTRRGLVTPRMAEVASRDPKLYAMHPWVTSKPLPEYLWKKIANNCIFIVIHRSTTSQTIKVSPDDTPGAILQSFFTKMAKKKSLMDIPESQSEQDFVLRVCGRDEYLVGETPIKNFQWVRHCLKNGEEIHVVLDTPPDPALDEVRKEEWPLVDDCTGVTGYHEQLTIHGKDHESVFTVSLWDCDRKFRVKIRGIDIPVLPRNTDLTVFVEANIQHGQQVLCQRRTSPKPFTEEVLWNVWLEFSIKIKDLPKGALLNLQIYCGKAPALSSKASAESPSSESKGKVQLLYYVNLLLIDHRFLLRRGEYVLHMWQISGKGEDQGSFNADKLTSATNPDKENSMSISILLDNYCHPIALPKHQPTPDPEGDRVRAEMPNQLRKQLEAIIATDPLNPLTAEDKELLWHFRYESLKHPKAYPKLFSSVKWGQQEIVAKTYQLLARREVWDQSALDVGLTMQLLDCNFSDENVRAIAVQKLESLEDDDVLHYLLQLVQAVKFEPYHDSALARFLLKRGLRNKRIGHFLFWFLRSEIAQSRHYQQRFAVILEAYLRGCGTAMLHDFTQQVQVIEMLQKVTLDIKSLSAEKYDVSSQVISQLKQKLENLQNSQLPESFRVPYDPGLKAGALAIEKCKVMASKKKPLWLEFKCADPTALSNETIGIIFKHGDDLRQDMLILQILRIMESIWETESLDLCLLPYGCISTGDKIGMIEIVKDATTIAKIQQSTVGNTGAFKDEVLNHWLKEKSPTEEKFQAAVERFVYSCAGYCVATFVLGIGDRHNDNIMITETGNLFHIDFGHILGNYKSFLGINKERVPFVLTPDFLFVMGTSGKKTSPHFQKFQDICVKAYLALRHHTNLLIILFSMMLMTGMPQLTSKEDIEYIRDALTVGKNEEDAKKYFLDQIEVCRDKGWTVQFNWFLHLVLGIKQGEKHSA

AURKA = AURKA (Homo sapiens (Human), UniProt O14965); conditions: literature; cited from earlier work
Chain of AURKA (O14965 whole entry, species assumed): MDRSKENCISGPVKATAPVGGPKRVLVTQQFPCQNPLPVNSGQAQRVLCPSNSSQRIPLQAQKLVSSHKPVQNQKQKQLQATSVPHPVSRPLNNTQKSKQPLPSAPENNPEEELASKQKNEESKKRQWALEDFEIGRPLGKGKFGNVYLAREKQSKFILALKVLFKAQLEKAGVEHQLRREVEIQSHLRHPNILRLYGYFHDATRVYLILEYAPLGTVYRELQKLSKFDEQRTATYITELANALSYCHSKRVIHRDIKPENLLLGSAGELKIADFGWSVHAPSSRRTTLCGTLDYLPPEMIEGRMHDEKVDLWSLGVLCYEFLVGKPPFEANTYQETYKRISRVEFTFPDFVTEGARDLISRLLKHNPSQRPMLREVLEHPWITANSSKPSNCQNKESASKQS

MST2 = MST2 (Homo sapiens (Human), UniProt Q13188); conditions: read-out: IC50 against MST2; literature; cited from earlier work
Chain of MST2 (Q13188 whole entry, species assumed): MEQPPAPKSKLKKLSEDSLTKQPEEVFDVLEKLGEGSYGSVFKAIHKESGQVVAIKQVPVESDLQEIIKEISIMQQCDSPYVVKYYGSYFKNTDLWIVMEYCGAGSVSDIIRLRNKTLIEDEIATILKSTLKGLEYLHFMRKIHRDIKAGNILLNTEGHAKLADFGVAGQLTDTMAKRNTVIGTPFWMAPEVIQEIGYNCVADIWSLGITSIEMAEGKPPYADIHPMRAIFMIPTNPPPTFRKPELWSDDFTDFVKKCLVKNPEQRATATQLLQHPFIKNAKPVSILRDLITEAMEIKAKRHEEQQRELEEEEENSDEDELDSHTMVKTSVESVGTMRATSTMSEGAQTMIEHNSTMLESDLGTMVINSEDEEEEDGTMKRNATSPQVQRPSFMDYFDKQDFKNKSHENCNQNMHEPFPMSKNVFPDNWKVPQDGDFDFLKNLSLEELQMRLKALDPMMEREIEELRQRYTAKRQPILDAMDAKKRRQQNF

T1 sequence (Q13043 whole entry): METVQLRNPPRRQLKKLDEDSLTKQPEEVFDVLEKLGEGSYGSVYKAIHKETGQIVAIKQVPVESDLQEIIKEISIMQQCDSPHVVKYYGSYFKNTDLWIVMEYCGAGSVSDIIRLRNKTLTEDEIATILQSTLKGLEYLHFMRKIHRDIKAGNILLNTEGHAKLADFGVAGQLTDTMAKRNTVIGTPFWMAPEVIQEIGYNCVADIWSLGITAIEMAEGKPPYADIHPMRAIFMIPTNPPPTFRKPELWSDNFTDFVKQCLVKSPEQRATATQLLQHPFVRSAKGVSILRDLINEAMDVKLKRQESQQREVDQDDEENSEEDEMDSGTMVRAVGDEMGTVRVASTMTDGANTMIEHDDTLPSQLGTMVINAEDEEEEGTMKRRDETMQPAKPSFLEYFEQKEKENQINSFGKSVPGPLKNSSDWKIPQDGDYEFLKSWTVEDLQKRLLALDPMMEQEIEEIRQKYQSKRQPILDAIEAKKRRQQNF

## CN1C(=O)C(c2c(F)cccc2F)N(C)c2nc(Nc3ccc(S(N)(=O)=O)cc3)ncc21 (stereo not shown) [Compound 1, 4-((7-(2,6-difluorophenyl)-5,8-dimethyl-6-oxo-5,6,7,8-tetrahydropteridin-2-yl)amino)benzsulfamide]
MST1 [1]; read-out: MST1 (IC50/μM), ATP 50 μM, 37° C. 1 hour
  IC50: 0.023 µM
C57BL/6 mice; 1 mg/kg intragastrically after APAP 600 mg/kg ip
  survival rate of the mice: 80%
C57BL/6 mice; 2 mg/kg intragastrically after APAP 600 mg/kg ip
  survival of the mice: all escaped from death
C57BL/6 mice; 4 mg/kg intragastrically after APAP 600 mg/kg ip
  survival of the mice: all escaped from death
C57BL/6 mice
  weight of mice: can gradually recover
[2]
  autophosphorylation of MST1: significantly inhibit
[3]
  cleavage of the four proteins Caspase9/7/3 and PARP: inhibit the cleavage
  expression of pro-apoptosis-related proteins such as BIM: down-regulate
  expression of the anti-apoptotic protein BCL-XL: promote the expression
PDX1
  expression of PDX1: promotes the expression of PDX1 to a certain extent
  phosphorylation of the transcription factor PDX1: a certain inhibitory effect
[4]
  AKT autophosphorylation: does not affect
  ERK autophosphorylation: can activate
MIN-6 cells; 0.3-3 μM, as the drug concentration increases
  cell proliferation: can promote cell proliferation

## CN1C(=O)c2sccc2N(C)c2nc(Nc3ccc(S(N)(=O)=O)cc3)ncc21 [XMU-MP-1]
MST1 [1]; ATP 50 μM, 37° C. 1 hour, read-out: MST1 (IC50/μM)
  IC50: 0.121 µM
C57BL/6 mice; 1 mg/kg intraperitoneally after APAP 600 mg/kg ip
  survival of the mice: all escaped from death
C57BL/6 mice
  weight of mice: can gradually recover
MIN-6 cells; 1 μM
  number of cells: reduced to a certain extent
  toxicity to MIN6 cells: toxic to MIN6 cells to a certain extent
MST1 [5]
  IC50: 71 nM
MAP3K2
  inhibitory effect on MAP3K2: significant inhibitory effect
TAOK
  inhibitory effect on TAOK: significant inhibitory effect
PIK3CG
  inhibition of PIK3CG: inhibited
AURKA
  inhibition of AURKA: inhibited
MST2
  IC50: 38 nM

Source: patent US12318398B2, “MST1 kinase inhibitor and use thereof” (priority 2018, dated 2025)
